From ChEMBL document CHEMBL5576124, “Discovery of an Exceptionally Orally Bioavailable and Potent HPK1 PROTAC with Enhancement of Antitumor Efficacy of Anti-PD-L1 Therapy” (J Med Chem, 2024)

Key:
[1] = target: T1, Protein cereblon/Mitogen-activated protein kinase kinase kinase kinase 1 (Homo sapiens, UniProt Q92918+Q96SW2); assay: PROTAC activity at CRBN/HPK1 in human Jurkat cells assessed as degradation of HPK1 protein incubated for 24 hrs by Western blotting analysis; assay type: cell-based
Target sequence in this assay (Q92918 whole entry): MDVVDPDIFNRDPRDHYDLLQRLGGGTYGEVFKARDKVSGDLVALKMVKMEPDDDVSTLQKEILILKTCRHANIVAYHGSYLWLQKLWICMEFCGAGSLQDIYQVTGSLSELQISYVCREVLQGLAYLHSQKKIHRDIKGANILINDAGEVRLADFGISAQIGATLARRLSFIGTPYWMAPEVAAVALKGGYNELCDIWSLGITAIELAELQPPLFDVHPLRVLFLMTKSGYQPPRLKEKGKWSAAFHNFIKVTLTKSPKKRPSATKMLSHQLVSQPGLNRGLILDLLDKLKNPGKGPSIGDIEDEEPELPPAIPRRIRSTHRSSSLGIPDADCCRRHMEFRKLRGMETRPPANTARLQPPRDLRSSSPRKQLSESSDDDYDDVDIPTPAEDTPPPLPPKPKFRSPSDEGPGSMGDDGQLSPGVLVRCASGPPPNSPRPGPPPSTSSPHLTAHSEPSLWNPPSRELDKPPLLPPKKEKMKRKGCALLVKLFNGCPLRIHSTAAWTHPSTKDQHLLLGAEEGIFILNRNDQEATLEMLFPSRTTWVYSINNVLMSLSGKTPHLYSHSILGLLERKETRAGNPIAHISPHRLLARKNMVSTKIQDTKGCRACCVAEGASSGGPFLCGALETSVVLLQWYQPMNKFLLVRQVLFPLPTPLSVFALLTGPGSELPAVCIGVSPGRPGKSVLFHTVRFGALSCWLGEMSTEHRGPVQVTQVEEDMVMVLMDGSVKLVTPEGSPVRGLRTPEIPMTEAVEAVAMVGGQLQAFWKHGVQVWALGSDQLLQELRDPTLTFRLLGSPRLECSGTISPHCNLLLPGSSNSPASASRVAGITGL
Target sequence in this assay (Q96SW2 whole entry): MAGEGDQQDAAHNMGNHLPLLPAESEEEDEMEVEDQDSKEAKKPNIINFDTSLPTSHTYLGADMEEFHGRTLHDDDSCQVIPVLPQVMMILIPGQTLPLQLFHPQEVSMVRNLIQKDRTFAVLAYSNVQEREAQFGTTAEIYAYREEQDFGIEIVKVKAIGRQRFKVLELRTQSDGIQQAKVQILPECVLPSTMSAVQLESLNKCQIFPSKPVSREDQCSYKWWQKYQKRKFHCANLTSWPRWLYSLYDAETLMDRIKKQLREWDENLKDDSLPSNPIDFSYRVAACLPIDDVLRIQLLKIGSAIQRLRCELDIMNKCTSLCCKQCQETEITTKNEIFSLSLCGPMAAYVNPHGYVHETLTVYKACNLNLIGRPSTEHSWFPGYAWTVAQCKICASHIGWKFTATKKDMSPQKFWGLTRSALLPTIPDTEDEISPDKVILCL

[2] = target: T1, Protein cereblon/Mitogen-activated protein kinase kinase kinase kinase 1; assay: PROTAC activity at CRBN/HPK1 in human Jurkat cells assessed as maximal degradation of HPK1 protein incubated for 24 hrs by Western blotting analysis relative to control; assay type: cell-based
Target sequence in this assay (Q92918 whole entry, looked up): as the sequence (Q92918 whole entry) above
Target sequence in this assay (Q96SW2 whole entry, looked up): as the sequence (Q96SW2 whole entry) above

[3] = Half life in Sprague-Dawley rat at 10 mg/kg,po measured upto 24 hrs by LC-MS analysis; assay type: ADME, organism-based; conditions: in vivo
[4] = Tmax in Sprague-Dawley rat at 10 mg/kg,po measured upto 24 hrs by LC-MS analysis; assay type: ADME, organism-based; conditions: in vivo
[5] = Cmax in Sprague-Dawley rat at 10 mg/kg,po measured upto 24 hrs by LC-MS analysis; assay type: ADME, organism-based; conditions: in vivo
[6] = AUC (0 to t) in Sprague-Dawley rat at 10 mg/kg,po measured upto 24 hrs by LC-MS analysis; assay type: ADME, organism-based; conditions: in vivo
[7] = MRT in Sprague-Dawley rat at 10 mg/kg,po measured upto 24 hrs by LC-MS analysis; assay type: ADME, organism-based; conditions: in vivo
[8] = target: T1, Protein cereblon/Mitogen-activated protein kinase kinase kinase kinase 1; assay: PROTAC activity at CRBN/HPK1 in human Jurkat cells assessed as maximal degradation of HPK1 protein incubated for 24 hrs by Nano-Glo luminescence assay relative to control; assay type: cell-based
Target sequence in this assay (Q92918 whole entry, looked up): as the sequence (Q92918 whole entry) above
Target sequence in this assay (Q96SW2 whole entry, looked up): as the sequence (Q96SW2 whole entry) above

Compound | DC50 [1] [nM] | Emax [2] [%] | half-life [3] [h] | Tmax [4] [h] | Cmax [5] [ng/mL] | AUC(0-t) at 24 h [6] [ng·h/mL] | MRT [7] [h] | Emax [8] [%]
Cc1cc(-c2c[nH]c3ncc(-c4ccc(C5CCN(C6CN(CC7CCN(c8ccc(N9CCC(=O)NC9=O)c(C)c8)CC7)C6)CC5)cc4)nc23)ccc1C(=O)N(C)C | 127 | 79.3 |  |  |  |  |  | 
Cc1cc(-c2c[nH]c3ncc(-c4ccc(C5CCN(C6CN(c7cc8c(cc7F)C(=O)N(C7CCC(=O)NC7=O)C8=O)C6)CC5)cc4)nc23)ccc1C(=O)N(C)C (stereo unspecified) | 78.8 | 84.2 |  |  |  |  |  | 
Cc1cc(-c2c[nH]c3ncc(-c4ccc(C5CCN(C(=O)C6CN(c7ccc8c(c7)C(=O)N(C7CCC(=O)NC7=O)C8=O)C6)CC5)cc4)nc23)ccc1C(=O)N(C)C (stereo unspecified) | > 10000 | 42.6 |  |  |  |  |  | 
Cc1cc(-c2c[nH]c3ncc(-c4ccc(C5CCN(C(=O)CCNc6cccc7c6C(=O)N(C6CCC(=O)NC6=O)C7=O)CC5)cc4)nc23)ccc1C(=O)N(C)C (stereo unspecified) | 962 | 63.6 |  |  |  |  |  | 
Cc1cc(-c2c[nH]c3ncc(-c4ccc(C5CCN(C6CN(C(=O)C7CCN(c8ccc9c(c8)C(=O)N(C8CCC(=O)NC8=O)C9=O)CC7)C6)CC5)cc4)nc23)ccc1C(=O)N(C)C (stereo unspecified) | > 10000 | 30.1 |  |  |  |  |  | 
Cc1cc(-c2c[nH]c3ncc(-c4ccc(C5CCN(c6cccc7c6C(=O)N(C6CCC(=O)NC6=O)C7=O)CC5)cc4)nc23)ccc1C(=O)N(C)C (stereo unspecified) | > 10000 | 2.8 |  |  |  |  |  | 
Cc1cc(-c2c[nH]c3ncc(-c4ccc(C5CCN(C6CN(C(=O)C7CN(c8ccc9c(c8)C(=O)N(C8CCC(=O)NC8=O)C9=O)C7)C6)CC5)cc4)nc23)ccc1C(=O)N(C)C (stereo unspecified) | > 10000 | 39.4 |  |  |  |  |  | 
Cc1cc(-c2c[nH]c3ncc(-c4ccc(C5CCN(C6CN(c7cccc8c7C(=O)N(C7CCC(=O)NC7=O)C8=O)C6)CC5)cc4)nc23)ccc1C(=O)N(C)C (stereo unspecified) | 152 | 64.9 |  |  |  |  |  | 
Cc1cc(-c2c[nH]c3ncc(-c4ccc(C5CCN(CCC6CCN(c7ccc8c(c7)C(=O)N(C7CCC(=O)NC7=O)C8=O)CC6)CC5)cc4)nc23)ccc1C(=O)N(C)C (stereo unspecified) | 1060 | 58.5 |  |  |  |  |  | 
Cc1cc(-c2c[nH]c3ncc(-c4ccc(N5CCN(c6cccc7c6C(=O)N(C6CCC(=O)NC6=O)C7=O)CC5)cc4)nc23)ccc1C(=O)N(C)C (stereo unspecified) | > 10000 | 37.9 | 4.4 | 1 | 602 | 4470 | 6.8 | 
Cc1cc(-c2c[nH]c3ncc(-c4ccc(N5CCN(c6ccc7c(c6)C(=O)N(C6CCC(=O)NC6=O)C7=O)CC5)cc4)nc23)ccc1C(=O)N(C)C (stereo unspecified) | > 10000 | 22.3 |  |  |  |  |  | 
Cc1cc(-c2c[nH]c3ncc(-c4ccc(C5CCN(CC6CCN(C7CN(c8ccc9c(c8)C(=O)N(C8CCC(=O)NC8=O)C9=O)C7)CC6)CC5)cc4)nc23)ccc1C(=O)N(C)C (stereo unspecified) | > 10000 | 38 |  |  |  |  |  | 
Cc1cc(F)c(Nc2nc(-c3ccc4c(c3)N(C3CC(N5CCCCC5)C3)C(=O)C43CCN(CCOCCOCCOCCOCCOCCOCCOCCNc4cccc5c4C(=O)N(C4CCC(=O)NC4=O)C5=O)CC3)cc3ncn(C(C)C)c23)cc1C(=O)NC(C)C (stereo unspecified) |  |  |  |  |  |  |  | > 65
Cc1cc(-c2c[nH]c3ncc(-c4ccc(C5CCN(C(=O)CCOCCOCCOc6cccc7c6C(=O)N(C6CCC(=O)NC6=O)C7=O)CC5)cc4)nc23)ccc1C(=O)N(C)C (stereo unspecified) | 245 | 56.6 | 2.3 | 0.5 | 118 | 187 | 3.6 | 
Cc1cc(-c2c[nH]c3ncc(-c4ccc(N5CCN(CC6CCN(c7ccc8c(c7)C(=O)N(C7CCC(=O)NC7=O)C8=O)CC6)CC5)cc4)nc23)ccc1C(=O)N(C)C (stereo unspecified) | 33.9 | 59.9 | 16.7 | 4 | 636 | 9970 | 24.6 | 
Cc1cc(-c2c[nH]c3ncc(-c4ccc(C5CCN(CC6CCN(c7ccc8c(c7)C(=O)N(C7CCC(=O)NC7=O)C8=O)C6)CC5)cc4)nc23)ccc1C(=O)N(C)C (stereo unspecified) | 78.8 | 84.1 |  |  |  |  |  | 
